Consider one molecule from patent US12304909B2, “Compounds and their use in therapy” (IMPERIAL COLLEGE INNOVATIONS LIMITED, priority 2018, dated 2025).

Usually EC50 stands for the concentration needed to bring the measured effect to its halfway point. Read a high EC50 as a less potent agent. The IC50 is the concentration that inhibits the measured activity by half. A high value points to weaker potency.

Data set [1] concerns MRC5 cells. Kind of data set: Metabolic activity assay (MTS assay), MRC5. To be noted: Homo sapiens, MRC5, 72 h. Type of data set: cell-based, human. How it is done:
Example NMT inhibitors of the present invention were tested for activity in an in vitro metabolic activity assay using the human cell line MRC5. Comparative Examples 1, 2, 3, 4, 5 and 6 were also tested in the same metabolic activity assay. Compounds having activity in inhibiting metabolic activity in the assay are expected to be useful as agents for preventing and/or treating cancer, by virtue of being inhibitors of human NMT1 and/or NMT2.
MRC5 cells (obtained from Dr David Mann's group, Imperial College; cell type: fibroblasts cells which derive from normal lung tissue) were grown in DMEM media (supplemented with 10% FBS) and were seeded in a 96-well plate, 24 h prior to treatment. Cell suspensions were prepared by adjusting the cell density to the appropriate concentration (as stated in the Table 1 below) and 50 μL of the cell suspension was transferred to wells B-G in columns 2-11 of a 96-well plate.
100 μL of growth media (DMEM media) containing 0.2% DMSO was added to wells B-G in columns 2 and 11 as positive controls, and 100 μl of growth media containing Puromycin (3 μg/mL; final concentration in the plate 2 μg/mL) was added to wells B-G in column 3 as a negative control. Seven concentrations of NMT inhibitor stock solution were prepared for each Example (Example 1 and 2) and each Comparative Example (Comparative Examples 1, 2, 3, 4, 5 and 6) tested (same final percentage of DMSO, dilution factor=3 starting from 15 μM or 150 μM). 100 μL of inhibitor stock solution was added to wells B-G in columns 4-10 of a 96-well plate (final concentration of Example compound or Comparative Example compound in the plate starting from 10 μM or 100 μM; total volume in each well was 150 μL). The plate was incubated at 37° C. with 5% CO2 level.
After 72 h, 20 μL MTS reagent (Promega, prepared according to the supplier protocol) was added to each well of the 96-well plate. The plate was incubated at 37° C. for 2 h and the absorbance per well was measured at 490 nm with an EnVision plate reader. The average absorbance value of the negative control (Puromycin-treated cells) was subtracted from each value and the metabolic activity was calculated as a percentage relative to the positive control (DMSO-treated cells). EC50 values were calculated using GraphPad.
A general note: Formazan colour is commonly taken as a measure of viable cells.

The nature of data set [2]: Human liver microsomes half life. The data set is classed as in vitro ADME. As to conditions: pH 7.4, read-out: Human liver microsomes t ½. How it is done:
Example Compound 1 was tested for metabolic stability in an assay using human liver microsomes. Comparative Examples 2, 3, 4, 5 and 6 were also tested in the same assay. Compounds having good metabolic stability in the assay are expected to be especially useful as agents for preventing and/or treating cancer, by having a long half-life in human patients
Frozen human liver microsomes obtained from Corning, USA (cat #452117) were thawed and diluted with 100 mM of pH 7.4 phosphate buffer to give a 1 mg/ml solution. An NADPH regeneration system (NRS) was prepared as a solution containing 13 mM NADP, 33 mM glucose-6-phosphate, 33 mM MgCl2 and 4U/mL glucose-6-phosphate dehydrogenase in 100 mM of pH7.4 phosphate buffer. The test compound (4 mM) in DMSO was diluted with acetonitrile to provide a 100 μM sub-stock then further diluted with 100 mM of pH7.4 phosphate buffer to provide a 2 μM working solution. The liver microsome solution and NRS were incubated at 37° C. before use. To each well of the test plate was dispensed 60 μL of buffer, 50 μL of test compound solution and 10 μL of NRS. A reaction was initiated by addition of 40 μL of liver microsome solution. Wells were incubated for an appropriate time (0, 5, 10, 20, 30 and 60 min) then quenched with 300 μL of acetonitrile containing reference standards atenolol, propranolol, diclofenac, verapamil). All plates were centrifuged at 3500 rpm for 20 min at 15° C. to pellet the debris. 110 μL supernatant was diluted 110 μL water and quantitated using LC-MS/MS.
The results were used to calculate the % Remaining of the test compound at time point t=100×˜[(AUC at time point t)/(AUC at T=0)]. A linear regression curve was fitted to a plot of natural logarithm (In) of AUC against time. The T-half (min)=0.693/slope.
For orientation: Microsomes from liver hold many membrane-bound enzymes, among them those of drug oxidation.

The target in data set [3] is T1, human NMT1 (HsNMT1) (Homo sapiens, UniProt P30419).
T1 sequence (P30419 1-496): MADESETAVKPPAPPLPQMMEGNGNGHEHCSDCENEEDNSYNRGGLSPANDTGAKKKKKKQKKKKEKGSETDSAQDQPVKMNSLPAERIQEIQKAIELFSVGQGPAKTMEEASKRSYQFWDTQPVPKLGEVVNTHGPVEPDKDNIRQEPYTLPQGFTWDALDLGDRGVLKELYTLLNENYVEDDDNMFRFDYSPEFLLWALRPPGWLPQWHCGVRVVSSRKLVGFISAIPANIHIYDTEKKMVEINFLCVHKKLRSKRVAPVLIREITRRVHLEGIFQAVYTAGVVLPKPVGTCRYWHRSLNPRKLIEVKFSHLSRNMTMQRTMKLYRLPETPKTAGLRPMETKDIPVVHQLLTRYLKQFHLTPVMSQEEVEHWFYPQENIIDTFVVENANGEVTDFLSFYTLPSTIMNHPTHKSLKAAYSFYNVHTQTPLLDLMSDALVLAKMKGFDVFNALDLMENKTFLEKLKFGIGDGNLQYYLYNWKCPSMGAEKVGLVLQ
Put plainly: HsNMT1 IC50, fluorescence-based assay detecting CoA with CPM. Type of data set: biochemical. How it is done:
The IC50 values for human NMT1 (HsNMT1) of four Example compounds of the invention described above (Examples 1-4) and six comparative examples (Comparative Examples 1, 2, 3, 4, 5 and 6) were measured using a sensitive fluorescence-based assay based on detection of CoA by 7-diethylamino-3-(4-maleimido-phenyl)-4-methylcoumarin, as described in Goncalves, V., et al., Analytical Biochemistry, 2012, 421, 342-344 and Goncalves, V., et al., J. Med. Chem, 2012, 55, 3578.

Data set [4] can be described thus: Mouse half life in vivo. To be noted: plasma; mouse oral half-life; male CD-1 mice, 10 mg/kg po; read-out: Rat or mouse t ½ (mouse) (converted). How it is done:
Example Compound 1, and Comparative Examples 2 and 3 were tested for metabolic stability in male Sprague-Dawley rats. Comparative Example 5 was tested for metabolic stability in male CD-1 mice. Compounds having good metabolic stability in rats or mice are expected to be especially useful as agents for preventing and/or treating cancer, by having a long half-life in human patients.
Same as rat protocol except that CD-1 mice were dosed at 5 mg/kg iv and 10 mg/kg po.

`Cc1nn(C)c(C)c1CCOc1cc(F)ccc1-c1ccc2c(c1)c(CN(C)C)nn2C` [Comparative Example 5, 1-(5-(4-fluoro-2-(2-(1,3,5-trimethyl-1H-pyrazol-4-yl)ethoxy)phenyl)-1-methyl-1H-indazol-3-yl)-N,N-dimethylmethanamine] displayed an EC50 in data set [1] of 27 µM. Also, the half-life at 0.625 µM in data set [2] stood at 7 min. The same molecule registered an IC50 in data set [3] of 0.013 µM. In addition, the half-life in data set [4] was 42 min.
